Assay in all cases: thioflavin T aggregation assay of recombinant protein, […] compound
Holding throughout (format): biochemical
Holding throughout (conditions): read-out: % inhibition at 50 μM

The target of assay [1] is T1, α-synuclein (Homo sapiens, UniProt P37840).
Assay [2] has as its target T2, AIMP2 (aminoacyl-tRNA synthetase interacting multifunctional protein-2) (Homo sapiens, UniProt Q13155).
T2 sequence (Q13155 1-320): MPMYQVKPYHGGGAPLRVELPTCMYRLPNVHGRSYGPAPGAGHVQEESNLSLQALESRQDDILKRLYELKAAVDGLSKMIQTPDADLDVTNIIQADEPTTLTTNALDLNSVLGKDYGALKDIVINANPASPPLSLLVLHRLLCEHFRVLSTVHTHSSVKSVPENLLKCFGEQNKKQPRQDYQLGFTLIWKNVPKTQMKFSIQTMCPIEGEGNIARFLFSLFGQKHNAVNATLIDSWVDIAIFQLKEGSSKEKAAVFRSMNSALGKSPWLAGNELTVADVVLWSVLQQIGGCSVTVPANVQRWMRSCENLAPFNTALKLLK

For assay [3], the target named is T1, α-synuclein. This is another data set of the same source.

SMILES strings stand for the structures. Where two headings read alike, the source gives them in different places.

What is called inhibition is the percentage by which the read-out fell short of the control. For `C[C@]12CC[C@H]3[C@@H](CCC4=CC(=O)CC[C@@H]43)[C@@H]1CC[C@@H]2O` [Nandrolone], the inhibition at 50 µM at α-synuclein [1] is roughly 39.9%. As to `CC(C)COc1ccc2c(c1)CC[C@@H]1[C@@H]2CC[C@]2(C)[C@H](O)CC[C@@H]12` [SG13-136, (8R,9S,13S,14S,17R)-3-isobutoxy-13-methyl-7,8,9,11,12,13,14,15,16,17-decahydro-6H-cyclopenta[a]phenanthren-17-ol], the inhibition at 50 µM was determined as 56.2% in assay [2] and 36.7% on α-synuclein [3].

The values are drawn from article PMC11576395 (iScience, 2024).
